Source: patent US7368424B2, “Acylated nonadepsipeptides” (AiCuris GmbH & Co. KG, priority 2003, dated 2008)
In brackets after ≈: the same amount, converted by molar mass. Read-outs that look alike come from different tables or passages of the source. *1 amine or outer side, *2 acyl side, *3 side chain or, on linkers, in order; H or OH if unused. Where a SMILES comes first, the peptide text is derived from it. Bridges are numbered along the chain shown (N, C = ends). [ ]: non-standard residue; d: D form. The star is where a group is joined. ξ: configuration not given here. Phe(3R-OH) = O=C([C@@H](N[*:1])[C@H](O[*:3])c1ccccc1)[*:2]; Phe(4-NO2) = N[C@@H](Cc1ccc([N+](=O)[O-])cc1)C(=O)O; Phe(3,4-(OMe)2) = COc1ccc(C[C@H](N)C(=O)O)cc1OC; Asn(3S-OH) = NC(=O)[C@@H](O)[C@H](N)C(=O)O; Leu(3R-OH) = CC(C)[C@@H](O)[C@H](N)C(=O)O; d(tBuAla) = CC(C)(C)C[C@@H](N)C(=O)O; 2Pal = N[C@@H](Cc1ccccn1)C(=O)O; aThr = C[C@H](O)[C@H](N)C(=O)O; ξIle = CC[C@H](C)C(N)C(=O)O; Bn = c1ccc(C*)cc1

Tests used:
[1] = test system: E. faecalis ICB 27159; assay type: cell-based, Enterococcus faecalis
Description: (§1) Determination of the Minimum Inhibitory Concentration (MIC):
(§2) The MIC is determined in the liquid dilution test in accordance with the NCCLS guidelines. Overnight cultures of Staphylococcus aureus 133, Enterococcus faecalis 27159, E. faecium 4147 and Streptococcus pneumoniae G9a are incubated with the desired test substances in a 1:2 dilution series. The MIC determination is carried out with a cell count of 10^5 microbes per ml in Isosensitest medium (Difco, Irvine/USA), with the exception of S. pneumoniae which is tested in BHI broth (Difco, Irvine/USA) with 10% bovine serum with a cell count of 10^6 microbes per ml. The cultures are incubated at 37° C. for 18-24 hours, S. pneumoniae in the presence of 10% CO2.
(§3) The MIC is defined as the lowest concentration of each substance at which visible bacterial growth no longer occurs. The MIC values are reported in μg/ml.

[2] = test system: Streptococcus pneumoniae G9a; assay type: cell-based
Description: as §1, §2, §3

[3] = test system: Staphylococcus aureus 133; assay type: cell-based
Description: as §1, §2, §3

[4] = test system: E. faecium L4001; assay type: cell-based, Enterococcus faecium
[5] = Isosensitest medium, 10^5 microbes per ml, 37° C., 18-24 hours
[6] = BHI broth with 10% bovine serum, 10^6 microbes per ml, 10% CO2, 37° C., 18-24 hours

CC[C@H](C)[C@@H]1NC(=O)[C@@H](CCCNC(=N)N)NC(=O)[C@H](CC(C)C)NC(=O)[C@H]([C@H](O)C(C)C)NC(=O)[C@@H](NC(=O)[C@H](Cc2ccccc2)NC(=O)[C@H](N)CC(C)C)[C@@H](c2ccccc2)OC(=O)[C@H](CO)NC(=O)[C@H]([C@H](O)C(N)=O)NC(=O)CNC(=O)[C@H]([C@H](C)O)NC1=O.O=C(O)C(F)(F)F.O=C(O)C(F)(F)F [Example 74, D-Leucyl-L-phenylalanyl-de(1-D-leucyl-2-L-leucyl)lysobactin bistrifluoroacetate] (H-[dL]F[Phe(3R-OH)][Leu(3R-OH)]L[dR]I[aThr]G[Asn(3S-OH)]S; ester 3-C)
MIC E. faecalis ICB 27159 ([1]; ICB 27159): 1 µg/mL
MIC S. pneumoniae ([2]; G9a): 0.063 µg/mL
MIC S. aureus 133 [3]; 133: 0.125 µg/mL
MIC E. faecium L4001 ([4]; L4001): 0.5 µg/mL

CC[C@H](C)[C@@H]1NC(=O)[C@@H](CCCNC(=N)N)NC(=O)[C@H](CC(C)C)NC(=O)[C@H]([C@H](O)C(C)C)NC(=O)[C@@H](NC(=O)[C@H](Cc2ccc([N+](=O)[O-])cc2)NC(=O)[C@H](N)Cc2ccccc2)[C@@H](c2ccccc2)OC(=O)[C@H](CO)NC(=O)[C@H]([C@H](O)C(N)=O)NC(=O)CNC(=O)[C@H]([C@H](C)O)NC1=O.O=C(O)C(F)(F)F.O=C(O)C(F)(F)F [Example 81, D-Phenylalanyl-4-nitro-L-phenylalanyl-de(1-D-leucyl-2-L-leucyl)lysobactine bistrifluoroacetate] (H-[dF][Phe(4-NO2)][Phe(3R-OH)][Leu(3R-OH)]L[dR]I[aThr]G[Asn(3S-OH)]S; ester 3-C)
MIC E. faecalis ICB 27159 ([1]; ICB 27159): 0.25 µg/mL
MIC S. pneumoniae ([2]; G9a): 0.25 µg/mL
MIC S. aureus 133 [3]; 133: 0.5 µg/mL
MIC E. faecium L4001 ([4]; L4001): 0.25 µg/mL

CC[C@H](C)[C@@H]1NC(=O)[C@@H](CCCNC(=N)N)NC(=O)[C@H](CC(C)C)NC(=O)[C@H]([C@H](O)C(C)C)NC(=O)[C@@H](NC(=O)[C@H](Cc2ccccc2)NC(=O)[C@H](N)Cc2ccccc2)[C@@H](c2ccccc2)OC(=O)[C@H](CO)NC(=O)[C@H]([C@H](O)C(N)=O)NC(=O)CNC(=O)[C@H]([C@H](C)O)NC1=O.O=C(O)C(F)(F)F.O=C(O)C(F)(F)F [Example 82, D-Phenylalanyl-L-phenylalanyl-de(1-D-leucyl-2-L-leucyl)lysobactine bistrifluoroacetate] (H-[dF]F[Phe(3R-OH)][Leu(3R-OH)]L[dR]I[aThr]G[Asn(3S-OH)]S; ester 3-C)
MIC E. faecalis ICB 27159 ([1]; ICB 27159): 1 µg/mL
MIC S. pneumoniae ([2]; G9a): 0.125 µg/mL
MIC S. aureus 133 [3]; 133: 0.125 µg/mL
MIC E. faecium L4001 ([4]; L4001): 0.5 µg/mL

CC[C@H](C)[C@@H]1NC(=O)[C@@H](CCCNC(=N)N)NC(=O)[C@H](CC(C)C)NC(=O)[C@H]([C@H](O)C(C)C)NC(=O)[C@@H](NC(=O)[C@H](Cc2ccc(OC)c(OC)c2)NC(=O)[C@H](N)CC(C)(C)C)[C@@H](c2ccccc2)OC(=O)[C@H](CO)NC(=O)[C@H]([C@H](O)C(N)=O)NC(=O)CNC(=O)[C@H]([C@H](C)O)NC1=O [Example 86, 3-tert-Butyl-D-alanyl-3-(3,4-dimethoxyphenyl)-L-alanyl-de(1-D-leucyl-2-L-leucyl)lysobactin bistri-fluoroacetate] (H-[d(tBuAla)][Phe(3,4-(OMe)2)][Phe(3R-OH)][Leu(3R-OH)]L[dR]I[aThr]G[Asn(3S-OH)]S; ester 3-C)
MIC E. faecalis ICB 27159 [1, 5]: 0.5 µg/mL (≈ 0.361 µM)
MIC S. pneumoniae [2, 6]: 0.125 µg/mL (≈ 0.0903 µM)
MIC S. aureus 133 [3, 5]: 0.25 µg/mL (≈ 0.181 µM)
MIC E. faecium L4001 [4, 5]: 1 µg/mL (≈ 0.722 µM)

CC[C@H](C)[C@@H]1NC(=O)[C@@H](CCCNC(=N)N)NC(=O)[C@H](CC(C)C)NC(=O)[C@H]([C@H](O)C(C)C)NC(=O)[C@@H](NC(=O)[C@H](Cc2ccccn2)NC(=O)[C@H](N)CC(C)(C)C)[C@@H](c2ccccc2)OC(=O)[C@H](CO)NC(=O)[C@H]([C@H](O)C(N)=O)NC(=O)CNC(=O)[C@H]([C@H](C)O)NC1=O [Example 97, 3-tert-Butyl-D-alanyl-3-(2-pyridyl)-L-alanyl-de(1-D-leucyl-2-L-leucyl)lysobactin tristrifluoroacetate] (H-[d(tBuAla)][2Pal][Phe(3R-OH)][Leu(3R-OH)]L[dR]I[aThr]G[Asn(3S-OH)]S; ester 3-C)
MIC E. faecalis ICB 27159 ([1]; ICB 27159): 0.5 µg/mL (≈ 0.377 µM)
MIC S. pneumoniae ([2]; G9a): 0.125 µg/mL (≈ 0.0943 µM)
MIC S. aureus 133 [3]; 133: 1 µg/mL (≈ 0.754 µM)
MIC E. faecium L4001 ([4]; L4001): 1 µg/mL (≈ 0.754 µM)

CC[C@H](C)C1NC(=O)[C@@H](CCCNC(=N)N)NC(=O)[C@H](CC(C)C)NC(=O)[C@H]([C@H](O)C(C)C)NC(=O)[C@@H](NC(=O)[C@H](COCc2ccccc2)NC(=O)[C@H](N)CC(C)(C)C)[C@@H](c2ccccc2)OC(=O)[C@H](CO)NC(=O)[C@H]([C@H](O)C(N)=O)NC(=O)CNC(=O)[C@H]([C@H](C)O)NC1=O.O=C(O)C(F)(F)F.O=C(O)C(F)(F)F (stereo partly drawn) [Example 99, (3-tert-Butyl-D-alanyl-O-benzyl-L-seryl)-de(1-D-leucyl-2-L-leucyl)lysobactin bistrifluoroacetate] (H-[d(tBuAla)]S(Bn)[Phe(3R-OH)][Leu(3R-OH)]L[dR][ξIle][aThr]G[Asn(3S-OH)]S; ester 3-C)
MIC E. faecalis ICB 27159 ([1]; ICB 27159): 0.063 µg/mL
MIC S. pneumoniae [2, 6]: ≦0.063 μg/ml
MIC S. aureus 133 [3]; 133: 0.25 µg/mL
MIC E. faecium L4001 ([4]; L4001): 0.063 µg/mL
